Test results taken from patent US6924302B2, “Substituted triazole diamine derivatives as kinase inhibitors” (Ortho McNeil Pharmaceutical, Inc., priority 2000, dated 2005).

Tests used:
Type in all cases: biochemical
CDK1:Cyclin-B = molecular target: T1, CDK1:Cyclin-B (Homo sapiens, UniProt P06493); test: CDK1 Screening Assay; conditions: Table 1; read-out: CDK1 IC50
T1 construct: purchased New England Biolabs 6020; host or cells: insect cells
Method: (§1) 70 μL of the kinase reaction mixture was dispensed into the well of a streptavidin coated FlashPlate™ (Cat. # SMP103, NEN, Boston, Mass.). Then 1 μL of test compound stock in 100% DMSO was added to the wells resulting in a final concentration of 1% DMSO in the reaction with a 100 μl final reaction volume. Next, CDK1:Cyclin-B protein was diluted in 50 mM Tris-HCl pH=8.0, 0.1% BSA at a concentration of 1 ng per μL and 30 μl (30 ng enzyme per test well) was added to each well to initiate the reaction. The reaction was incubated for one hour at 30° C. At the end of the 1-hour incubation, the reaction was terminated by aspirating the reaction mixture from the plate and washing the wells twice with PBS containing 100 mM EDTA. The histone-H1 biotinylated peptide substrate became immobilized on the Flashplate™ and the incorporation of ^33P-γ-ATP was measured by reading the plate on a scintillation counter. Inhibition of the enzymatic activity of CDK1 was measured by observing a reduced amount of ^33P-γ-ATP incorporated into the immobilized peptide.
Assays to test compound inhibition of other kinases were preformed using methods that measure the amount of phosphorylation of a biotinylated peptide substrate. Biotinylated peptide substrates were selected from the literature as appropriate for the enzyme being evaluated. […] Assay conditions vary slightly for each protein kinase, for example, insulin receptor kinase requires 10 mM MnCl2 for activity and Calmodulin-dependent protein kinase requires calmodulin and 10 mM CaCl2. These assay conditions are known in the art. The reaction mixture was dispensed into the wells of a streptavidin coated Flashplate and 1 μl drug stock in 100% DMSO was added to a 100 μl reaction volume resulting in a final concentration of 1% DMSO on the reaction. Enzyme was diluted in 50 mM Tris-HCl pH=8.0, 0.1% BSA and add to each well. The reaction was incubated for one hour at 30° C. in the presence of compound. After one hour the reaction mix was aspirated from the plate and the plate was washed with PBS containing 100 mM EDTA. The plate was read on a scintillation counter to determine ^33P-γ-ATP incorporated into the immobilized peptide. Test compounds were assayed in duplicate at 8 concentrations [100 uM, 10 uM, 1 uM, 100 nM, 10 nM, 1 nM, 100 pM, 10 pM]. A maximum and minimum signal for the assay was determined on each plate. The IC50 was calculated from the dose response curve of the percent inhibition of the maximum signal in the assay according to the formula [max signal—background/test compound signal—background (100)=% inhibition] by graphing the percent inhibition against the log concentration of test compound. Known inhibitor compounds appropriate for the kinase being assayed were also included on each plate. […]

[1] = molecular target: T2, VEGF-R (vascular endothelial growth factor receptor-2) (Rattus norvegicus, UniProt O08775); test: VEGF-R Screening Assay; conditions: Table 1; read-out: VEGF-R IC50
T2 construct: polyhistidine (6xHIS) (N)
Method: as §1, with “a 100 μL final reaction” for “a 100 μl final reaction”, “volume. Next, soluble rat tyrosine kinase containing an N-terminal 6×HIS tag was diluted” for “volume. Next, CDK1:Cyclin-B protein was diluted”, “concentration of 5 ng per” for “concentration of 1 ng per”, “and 30 μL (150 ng enzyme” for “and 30 μl (30 ng enzyme”, “EDTA. The PLC1 biotinylated peptide” for “EDTA. The histone-H1 biotinylated peptide”, “activity of the VEGF-R was measured” for “activity of CDK1 was measured”
(§2) Assays to test compound inhibition of other kinases were preformed using methods that measure the amount of phosphorylation of a biotinylated peptide substrate. Biotinylated peptide substrates were selected from the literature as appropriate for the enzyme being evaluated. […] Assay conditions vary slightly for each protein kinase, for example, insulin receptor kinase requires 10 mM MnCl2 for activity and Calmodulin-dependent protein kinase requires calmodulin and 10 mM CaCl2. These assay conditions are known in the art. The reaction mixture was dispensed into the wells of a streptavidin coated Flashplate and 1 μl drug stock in 100% DMSO was added to a 100 μl reaction volume resulting in a final concentration of 1% DMSO on the reaction. Enzyme was diluted in 50 mM Tris-HCl pH=8.0, 0.1% BSA and add to each well. The reaction was incubated for one hour at 30° C. in the presence of compound. After one hour the reaction mix was aspirated from the plate and the plate was washed with PBS containing 100 mM EDTA. The plate was read on a scintillation counter to determine ^33P-γ-ATP incorporated into the immobilized peptide. Test compounds were assayed in duplicate at 8 concentrations [100 uM, 10 uM, 1 uM, 100 nM, 10 nM, 1 nM, 100 pM, 10 pM]. A maximum and minimum signal for the assay was determined on each plate. The IC50 was calculated from the dose response curve of the percent inhibition of the maximum signal in the assay according to the formula [max signal—background/test compound signal—background (100)=% inhibition] by graphing the percent inhibition against the log concentration of test compound. Known inhibitor compounds appropriate for the kinase being assayed were also included on each plate.
(§3) CDK2 in complex with cyclin A is commercially available (Upstate Biotech, Lake Placid, N.Y.). The CDK4 complex was composed of a mouse CDK4 protein and a mouse Cyclin D1 protein (The mouse CDK4 protein was genetically fused to an N-terminal Flag-epitope tag and the mouse Cyclin D1 protein was fused with an N-terminal AU-1 epitope tag. The genes encoding these proteins were transferred to commercially available baculoviral vectors. The recombinant CDK4/D1 complex was then made by co-infecting commercially available insect cells with viruses carrying these two constructs). […] ERK-1 protein (Discontinued from Calbiochem). EGFR (epidermal growth factor receptor) is purified from human A431 cell membranes (Sigma, St. Louis, Mo., Cat.# E3641).

[2] = molecular target: T3, HER2 (human epidermal growth factor receptor-2) (Homo sapiens, UniProt P04626); test: Kinase Selectivity Assay HER2; conditions: Table 1; read-out: HER2 IC50
T3 construct: begins at amino acid 676 followed by the remainder of the HER2 cytoplasmic domain; polyhistidine (N)
Method: as §2, §3

T2 sequence (O08775 786-1343): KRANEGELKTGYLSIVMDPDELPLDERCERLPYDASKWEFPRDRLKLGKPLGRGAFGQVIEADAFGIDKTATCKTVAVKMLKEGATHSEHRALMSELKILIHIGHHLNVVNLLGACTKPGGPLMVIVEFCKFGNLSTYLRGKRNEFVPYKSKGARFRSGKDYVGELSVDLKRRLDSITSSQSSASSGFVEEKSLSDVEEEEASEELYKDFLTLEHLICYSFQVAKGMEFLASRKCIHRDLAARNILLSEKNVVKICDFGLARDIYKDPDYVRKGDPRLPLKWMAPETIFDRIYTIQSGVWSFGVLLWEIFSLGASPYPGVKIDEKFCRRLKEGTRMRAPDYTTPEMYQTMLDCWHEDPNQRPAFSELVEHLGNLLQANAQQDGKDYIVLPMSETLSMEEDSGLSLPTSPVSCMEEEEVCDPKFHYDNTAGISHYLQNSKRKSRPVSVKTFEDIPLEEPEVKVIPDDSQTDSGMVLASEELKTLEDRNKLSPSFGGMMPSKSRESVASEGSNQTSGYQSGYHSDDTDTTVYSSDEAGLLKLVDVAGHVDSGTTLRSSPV
T3 sequence (P04626 676-1255 limits assumed): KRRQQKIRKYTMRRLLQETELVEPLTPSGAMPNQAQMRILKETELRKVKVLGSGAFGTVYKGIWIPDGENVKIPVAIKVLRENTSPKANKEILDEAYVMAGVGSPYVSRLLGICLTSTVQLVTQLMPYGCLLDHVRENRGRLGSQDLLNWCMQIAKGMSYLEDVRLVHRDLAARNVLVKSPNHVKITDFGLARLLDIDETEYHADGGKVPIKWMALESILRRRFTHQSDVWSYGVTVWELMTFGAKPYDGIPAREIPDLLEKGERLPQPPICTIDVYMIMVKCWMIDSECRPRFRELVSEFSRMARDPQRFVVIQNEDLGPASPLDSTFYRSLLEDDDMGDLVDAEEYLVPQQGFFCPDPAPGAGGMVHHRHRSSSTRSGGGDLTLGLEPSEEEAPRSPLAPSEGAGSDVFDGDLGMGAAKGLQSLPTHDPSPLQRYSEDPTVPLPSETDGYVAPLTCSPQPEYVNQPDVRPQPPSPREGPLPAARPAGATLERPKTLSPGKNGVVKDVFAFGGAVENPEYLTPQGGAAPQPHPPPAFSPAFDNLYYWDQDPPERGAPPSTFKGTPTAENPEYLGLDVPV
T1 sequence (P06493 whole entry): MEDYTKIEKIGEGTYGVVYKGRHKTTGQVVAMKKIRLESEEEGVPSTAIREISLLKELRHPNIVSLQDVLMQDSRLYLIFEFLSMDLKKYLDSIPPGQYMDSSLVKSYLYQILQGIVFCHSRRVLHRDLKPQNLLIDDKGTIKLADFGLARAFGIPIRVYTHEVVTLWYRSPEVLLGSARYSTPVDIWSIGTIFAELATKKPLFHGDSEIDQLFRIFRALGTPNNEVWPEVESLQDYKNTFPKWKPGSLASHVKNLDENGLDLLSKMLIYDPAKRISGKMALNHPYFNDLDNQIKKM
T1 sequence (P14635 whole entry partner): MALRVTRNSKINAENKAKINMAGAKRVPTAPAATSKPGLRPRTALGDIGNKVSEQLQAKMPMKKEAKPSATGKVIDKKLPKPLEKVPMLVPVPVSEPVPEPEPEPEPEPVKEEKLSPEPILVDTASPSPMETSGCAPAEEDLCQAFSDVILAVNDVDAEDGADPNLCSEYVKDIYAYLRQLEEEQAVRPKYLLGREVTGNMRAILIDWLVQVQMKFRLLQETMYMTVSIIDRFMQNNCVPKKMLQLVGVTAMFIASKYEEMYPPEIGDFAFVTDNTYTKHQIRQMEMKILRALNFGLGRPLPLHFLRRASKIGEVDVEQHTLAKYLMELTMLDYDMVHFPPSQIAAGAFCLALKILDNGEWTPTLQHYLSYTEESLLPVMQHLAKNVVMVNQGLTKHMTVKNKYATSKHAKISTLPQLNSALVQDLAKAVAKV

| Structure (SMILES) | IC50 (CDK1:Cyclin-B) [nM] | IC50 [1] [nM] | IC50 [2] [nM] |
| --- | --- | --- | --- |
| Cc1ccc(F)c(C(=O)n2nc(Nc3ccc(S(=O)(=O)O)cc3)nc2N)c1F [Cpd 60, 4-[[5-amino-1-(2,6-difluoro-3-methylbenzoyl)-1H-1,2,4-triazol-3-yl]amino]-benzenesulfonic acid] | 1370 | 890 | 7460 |
| Cc1ccc(F)c(C(=O)n2nc(Nc3ccc(N4CCN(C)CC4)cc3)nc2N)c1F [Cpd 72, 1-(2,6-difluoro-3-methylbenzoyl)-N^3-[4-(4-methyl-1-piperazinyl)phenyl]-1H-1,2,4-triazole-3,5-diamine] | 1430 | 380 | 1490 |
| Cc1ccsc1C(=O)n1nc(Nc2ccc(N3CCN(C)CC3)cc2)nc1N [Cpd 73, N^3-[4-(4-methyl-1-piperazinyl)phenyl]-1-[(3-methyl-2-thienyl)carbonyl]-1H-1,2,4-triazole-3,5-diamine] | 2200 | 29 | 176 |
| Cc1cc(C)c(C(=O)n2nc(Nc3ccc(N4CCN(C)CC4)cc3)nc2N)s1 [Cpd 74, 1-[(3,5-dimethyl-2-thienyl)carbonyl]-N^3-[4-(4-methyl-1-piperazinyl)phenyl]-1H-1,2,4-triazole-3,5-diamine] | 460 | 21 | 62 |
| CCc1ccc(C(=O)n2nc(Nc3ccc(N4CCN(C)CC4)cc3)nc2N)s1 [Cpd 75, 1-[(5-ethyl-2-thienyl)carbonyl]-N^3-[4-(4-methyl-1-piperazinyl)phenyl]-1H-1,2,4-triazole-3,5-diamine] | 520 | 33 | 60 |
| CCc1ccc(C(=O)n2nc(Nc3ccc(S(=O)(=O)N(C)C)cc3)nc2N)s1 [Cpd 86, 4-[[5-amino-1-[(5-ethyl-2-thienyl)carbonyl]-1H-1,2,4-triazol-3-yl]amino]-N,N-dimethyl-benzenesulfonamide] | 109 | 86.9 | 413 |
| Cc1ccsc1C(=O)n1nc(Nc2ccc(S(=O)(=O)N(C)C)cc2)nc1N [Cpd 87, 4-[[5-amino-1-[(3-methyl-2-thienyl)carbonyl]-1H-1,2,4-triazol-3-yl]amino]-N,N-dimethyl-benzenesulfonamide] | 217 | 16.8 | 436 |
| Cc1ccc(F)c(C(=O)n2nc(Nc3ccc(S(=O)(=O)N(C)C)cc3)nc2N)c1F [Cpd 88, 4-[[5-amino-1-(2,6-difluoro-3-methylbenzoyl)-1H-1,2,4-triazol-3-yl]amino]-N,N-dimethyl-benzenesulfonamide] | 313 | 965 | ~1000 |
| CN(C)S(=O)(=O)c1ccc(Nc2nc(N)n(C(=O)c3c(F)cccc3F)n2)cc1 [Cpd 89, 4-[[5-amino-1-(2,6-difluorobenzoyl)-1H-1,2,4-triazol-3-yl]amino]-N,N-dimethyl-benzenesulfonamide] | 710 | 598 | ~10000 |
| CCc1ccc(C(=O)n2nc(Nc3ccc(-n4ccnc4)cc3)nc2N)s1 [Cpd 90, 1-[(5-ethyl-2-thienyl)carbonyl]-N^3-[4-(1H-imidazol-1-yl)phenyl]-1H-1,2,4-triazole-3,5-diamine] | ~1000 | ~100 | ~100 |
| Cc1ccsc1C(=O)n1nc(Nc2ccc(-n3ccnc3)cc2)nc1N [Cpd 91, N^3-[4-(1H-imidazol-1-yl)phenyl]-1-[(3-methyl-2-thienyl)carbonyl]-1H-1,2,4-triazole-3,5-diamine] | 335 | 73.6 | 223 |
| Nc1nc(Nc2ccc(-n3ccnc3)cc2)nn1C(=O)c1c(F)cccc1F [Cpd 93, 1-(2,6-difluorobenzoyl)-N^3-[4-(1H-imidazol-1-yl)phenyl]-1H-1,2,4-triazole-3,5-diamine] | 452 | 727 | ~1000 |
| Cc1ccc(F)c(C(=O)n2nc(Nc3ccc(-n4ccnc4)cc3)nc2N)c1F [Cpd 94, 1-(2,6-difluoro-3-methylbenzoyl)-N^3-[4-(1H-imidazol-1-yl)phenyl]-1H-1,2,4-triazole-3,5-diamine] | 272 | 409 | 147 |
| Cc1ccc(F)c(C(=O)n2nc(Nc3ccc(-n4cncn4)cc3)nc2N)c1F [Cpd 95, 1-(2,6-difluoro-3-methylbenzoyl)-N^3-[4-(1H-1,2,4-triazol-1-yl)phenyl]-1H-1,2,4-triazole-3,5-diamine] | 139 | 260 | 914 |
| Nc1nc(Nc2ccc(-n3cncn3)cc2)nn1C(=O)c1c(F)cccc1F [Cpd 96, 1-(2,6-difluorobenzoyl)-N^3-[4-(1H-1,2,4-triazol-1-yl)phenyl]-1H-1,2,4-triazole-3,5-diamine] | 373 | 817 | 1410 |
| CCc1ccc(C(=O)n2nc(Nc3ccc(-n4cncn4)cc3)nc2N)s1 [Cpd 97, 1-[(5-ethyl-2-thienyl)carbonyl]-N^3-[4-(1H-1,2,4-triazol-1-yl)phenyl]-1H-1,2,4-triazole-3,5-diamine] | ~100 | ~100 | ~10 |
| Cc1cc(C)c(C(=O)n2nc(Nc3ccc(-n4cncn4)cc3)nc2N)s1 [Cpd 98, 1-[(3,5-dimethyl-2-thienyl)carbonyl]-N^3-[4-(1H-1,2,4-triazol-1-yl)phenyl]-1H-1,2,4-triazole-3,5-diamine] | > 100 | ~100 | ~100 |
| Nc1nc(Nc2ccc(-n3cnnc3)cc2)nn1C(=O)c1c(F)cccc1F [Cpd 100, 1-(2,6-difluorobenzoyl)-N^3-[4-(4H-1,2,4-triazol-4-yl)phenyl]-1H-1,2,4-triazole-3,5-diamine] | 340 | 1100 | 1290 |
